Reference: publication PMC4550849 (Scientific Reports, 2015)

Columns and labels:
[1] = system: C32 cells treated with diphtheria toxin; type: cell-based, human
[2] = system: anthrax toxin (LF + PA) lethality; set-up: species or system Sprague-Dawley rats; conditions: rat, in vivo
[3] = system: caspase-1; type: cell-based, mouse
[4] = system: MEK-2; type: cell-based, mouse
[5] = target: LF (Bacillus anthracis, UniProt P15917); type: biochemical
[6] = system: RAW264.7 cells treated with PA + FP59; type: cell-based, mouse
[7] = system: PA83 binding to RAW264.7 cells; type: cell-based, mouse
[8] = system: acidic vesicles in RAW264.7 cells; type: cell-based, mouse; conditions: AQ 1 h, 500 ng/ml PA 1 h
[9] = target: purified human cathepsin B (Homo sapiens, UniProt P07858); type: biochemical; conditions: 4, 8, 16, 33, or 66 μM; without pre-incubation; pH 5.8
[10] = target: cathepsin B (Homo sapiens, UniProt P07858); type: binding
[11] = system: Ebola virus (Kikwit); experiment: microbe, parasite or virus in culture; type: cell-based; conditions: Zaire ebolavirus, HeLa
[12] = system: Ebola virus (EBOV); experiment: microbe, parasite or virus in culture; type: cell-based; conditions: Zaire ebolavirus, HFF-1, 48 h
[13] = system: SARS CoV Strain Urbani; experiment: microbe, parasite or virus in culture; type: cell-based, SARS coronavirus; conditions: Severe acute respiratory syndrome coronavirus, Vero 76
[14] = system: Venezuelan equine encephalitis virus (VEEV, Strain TC-83); experiment: microbe, parasite or virus in culture; type: cell-based
[15] = system: Rabies (Strain Flury); experiment: microbe, parasite or virus in culture; type: cell-based; conditions: Lyssavirus rabies, BHK-21, 120 h
[16] = system: Junin (JUNV); experiment: microbe, parasite or virus in culture; type: cell-based, Junin virus; conditions: Mammarenavirus juninense
[17] = system: Chikungunya (CHIV); experiment: microbe, parasite or virus in culture; type: cell-based
[18] = system: RAW264.7 cells treated with Clostridium difficile toxin B; experiment: cells; type: cell-based; conditions: Mus musculus, RAW264.7, 6 h
[19] = system: Poliovirus: WM3; experiment: microbe, parasite or virus in culture; type: cell-based, Poliovirus 3; conditions: Enterovirus C, LLC-MK2
[20] = system: Herpes Simplex Virus 1 (HSV-1, Strain E-377); experiment: microbe, parasite or virus in culture; type: cell-based; conditions: Human alphaherpesvirus 1, HFF, 72 h
[21] = system: RAW264.7 cells treated with Cholera toxin; experiment: cells; type: cell-based; conditions: Mus musculus, RAW264.7, 6 h
[22] = system: RAW264.7 cells treated with Pseudomonas aeruginosa Exotoxin A; experiment: cells; type: cell-based; conditions: Mus musculus, RAW264.7, 6 h
[23] = system: Human Cytomegalovirus (CMV, Strain AD169); experiment: microbe, parasite or virus in culture; type: cell-based; conditions: Human betaherpesvirus 5, AD169, HFF, 336 h
[24] = system: Respiratory syncytial virus (RSV): Strain A-2; experiment: microbe, parasite or virus in culture; type: cell-based; conditions: human respiratory syncytial virus, HEp-2
[25] = system: RAW264.7 cells treated with anthrax lethal toxin (PA + LF)
[26] = system: HeLa cells; conditions: human
[27] = system: Ebola; conditions: in vivo; cited from earlier work
[28] = system: Plasmodium falciparum phosphoethanolamine methyltransferase; conditions: cited from earlier work
[29] = system: Ebola virus; conditions: cited from earlier work
[30] = in vitro; conditions: human
[31] = in vitro; conditions: African green monkey
[32] = in vitro; conditions: hamster
[33] = in vitro; conditions: rhesus monkey
[34] = system: endosomal acidification; conditions: cited from earlier work
[35] = in vitro; conditions: human; remark: listed apart in the source
[36] = system: RAW264.7 cells treated with anthrax lethal toxin (PA + LF); experiment: cells; conditions: Mus musculus, RAW264.7, read-out: EC50, reduction of anthrax toxin-mediated cytotoxicity
[37] = human, in vivo, cited from earlier work
[38] = system: host lysosomal cathepsin B; conditions: cited from earlier work

Chain of LF (P15917 34-809 limits assumed): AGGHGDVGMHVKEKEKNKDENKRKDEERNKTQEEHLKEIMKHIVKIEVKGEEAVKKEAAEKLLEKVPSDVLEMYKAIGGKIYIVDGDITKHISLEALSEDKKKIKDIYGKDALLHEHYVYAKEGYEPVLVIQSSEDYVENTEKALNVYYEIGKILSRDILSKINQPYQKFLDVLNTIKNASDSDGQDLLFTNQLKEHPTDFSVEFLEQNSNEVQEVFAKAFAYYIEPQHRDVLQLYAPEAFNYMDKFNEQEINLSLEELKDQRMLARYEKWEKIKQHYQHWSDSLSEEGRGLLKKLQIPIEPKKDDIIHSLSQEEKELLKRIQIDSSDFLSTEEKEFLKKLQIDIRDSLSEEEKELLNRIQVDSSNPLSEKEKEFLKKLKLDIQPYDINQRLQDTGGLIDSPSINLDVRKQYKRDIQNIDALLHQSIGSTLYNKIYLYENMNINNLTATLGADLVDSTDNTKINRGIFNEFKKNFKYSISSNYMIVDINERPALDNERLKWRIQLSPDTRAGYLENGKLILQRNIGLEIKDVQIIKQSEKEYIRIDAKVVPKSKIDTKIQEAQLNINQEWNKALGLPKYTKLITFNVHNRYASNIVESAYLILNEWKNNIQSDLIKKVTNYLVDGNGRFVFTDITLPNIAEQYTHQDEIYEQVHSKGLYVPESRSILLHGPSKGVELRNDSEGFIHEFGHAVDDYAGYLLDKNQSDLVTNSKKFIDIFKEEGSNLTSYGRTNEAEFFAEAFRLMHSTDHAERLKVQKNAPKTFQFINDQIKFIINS

Compound: CCN(CC)Cc1cc(Nc2ccnc3cc(Cl)ccc23)ccc1O [AQ, Amodiaquine]
- inhibition of diphtheria toxin cell killing (multiplex hit) [1]: inhibited
- rats saved after lethal anthrax toxin challenge [2]: 40%
- survival after lethal anthrax toxin challenge [2]: all survived
- active caspase-1 after LF-PA treatment (FLICA) [3]: not detected
- LF-PA-mediated cleavage of MEK2 [4]: completely prevented
- proteolytic activity of LF on MAPKK peptide (emission at 523 nm) [5]: does not block
- sensitivity of cells to PA + FP59 [6]: less sensitive
- binding of PA83 to cells [7]: did not block
- proteolytic processing of PA to generate PA63 [7]: did not block
- cell-associated Lysosensor fluorescence (acidic organelles) [8]: markedly decreased
- inhibition of purified human cathepsin B activity [9]: directly inhibit cathepsin B activity in a dose dependent manner
- binding to cathepsin B (STD difference spectrum) ([10]; 2 mM AQ, 20 μM cathepsin B (100:1)): binding to the enzyme
- STD effect, atom H4 ([10]; relative to H4 atom (100%)): 100%
- STD effect, atom H5 ([10]; relative to H4 atom (100%)): 97%
- EC50 [11]: 2.4 µM
- EC50 ([11]; 24 h): 2 µM
- EC50 ([11]; 48 h): 4 µM
- EC50 [12]: 2.6 µM
- EC50 [13]: 2.4 µM
- EC50 [14]: 3.2 µM
- EC50 [15]: 5.7 µM
- EC50 [16]: 16.9 µM
- EC50 [17]: 18.4 µM
- EC50 [18]: 4.6 µM
- EC50 [19]: > 100 µM
- EC50 [20]: > 60 µM
- EC50 [21]: > 66.7 µM
- EC50 [22]: > 66.7 µM
- EC50 [23]: > 60 µM
- EC50 [24]: 32 µM
- protection of host cells against anthrax toxin killing (cell viability, MTT) [25]: completely protect
- sensitivity of host cells to PA83 + LF and PA63 + LF [25]: equally reduces sensitivity
- CC50 [26]: > 50 µM
- reduction of Ebola mortality risk [27]: 31%
- inhibition of Plasmodium falciparum phosphoethanolamine methyltransferase [28]: inhibits
- Ebola virus pathogenicity in cells [29]: inhibit Ebola virus pathogenicity in cells
- CC50 ([30]; CC50): 50 µM
- CC50 [31]: 32 µM
- CC50 [32]: > 10 µM
- CC50 [33]: > 100 µM

Compound: CCN(CC)CCCC(C)Nc1ccnc2cc(Cl)ccc12 (centres unmarked) [CQ, Chloroquine]
- inhibition of diphtheria toxin cell killing (multiplex hit) [1]: inhibited
- inhibition of purified human cathepsin B activity [9]: weaker inhibitors
- EC50 ([11]; 48 h): 4.8 µM
- EC50 [12]: 2.5 µM
- endosomal acidification [34]: prevent endosomal acidification
- Ebola virus pathogenicity in cells [29]: inhibit Ebola virus pathogenicity in cells
- CC50 ([30]; CC50): 100 µM
- CC50 [35]: 70 µM

Compound: C=C[C@H]1C[N@@]2CC[C@H]1C[C@@H]2[C@@H](O)c1ccnc2ccccc12 [Cinchonine]
- protection of host cells against anthrax toxin killing (cell viability, MTT) [25]: none

Compound: CCNCc1cc(Nc2ccnc3cc(Cl)ccc23)ccc1O [DEAQ, Desethyl-Amodiaquine]
- inhibition of purified human cathepsin B activity [9]: directly inhibit cathepsin B activity in a dose dependent manner
- EC50 ([11]; 24 h): 2 µM
- EC50 ([11]; 48 h): 4 µM
- EC50 [12]: 2.1 µM
- EC50 [16]: 13.8 µM
- EC50 [17]: 17.3 µM
- EC50 [36]: 5 µM
- CC50 ([30]; CC50): 50 µM
- CC50 ([30]; CC50, 24 h): > 50 µM
- CC50 ([30]; CC50, 48 h): > 50 µM
- terminal half-life ([37]; po): 220 to 432 h
- Cmax (maximal amounts of drug in the blood after oral administration) [37]: low μM range

Compound: CCNCCCC(C)Nc1ccnc2cc(Cl)ccc12 (centres unmarked) [DECQ, Desethyl-Chloroquine]
- inhibition of purified human cathepsin B activity [9]: weaker inhibitors
- EC50 ([11]; 48 h): 7.3 µM
- EC50 [12]: 3.2 µM
- CC50 ([30]; CC50): 100 µM
- CC50 [35]: 70 µM

Compound: COc1cc(NC(C)CCCN)c2ncccc2c1 (centres unmarked) [Primaquine]
- protection of host cells against anthrax toxin killing (cell viability, MTT) [25]: none

Compound: C=C[C@H]1C[N@@]2CC[C@H]1C[C@@H]2[C@@H](O)c1ccnc2ccc(OC)cc12 [Quinidine]
- protection of host cells against anthrax toxin killing (cell viability, MTT) [25]: none

Compound: CA-074
- accumulation of PA pores in late endosomes [38]: elevated accumulation
- cellular sensitivity to LF-PA [38]: reduction of cellular sensitivity
- release of LF from the late endosomes into the cytoplasm [38]: inability of LF to be released
